# According to PMC4368200, “Triclabendazole Sulfoxide Causes Stage-Dependent Embryolethality in Zebrafish and Mouse In Vitro” (PLoS ONE, 2015):
# Values joined by “and” are separate entries in the source; they are usually repeats but may differ in a detail not shown here. Identical values can stand only once. Like-named read-outs stand apart in the source and are kept apart here. Marks after values point to notes of the source that are not given here.
# Legend:
# [1] = system: rat embryos explanted at GD 9.5; assay: Postimplantation whole embryo culture (postWEC); parameters: species or system Sprague Dawley rats; key to Yolk sac circulation (median): 1 = few/abnormal vessels, 2 = delayed, 3 = complete vascularization; key to Morphological score: sum of structure scores; higher = more advanced differentiation; details: for Crown-rump length / Morphological score / Somites number / Yolk sac circulation (median) / Dysmorphogenic embryos: 48 h; for postWEC LOAEC: GD 9.5-11.5, 48 h
# Experimental: Nulliparous female rats, which were checked to be in the oestrus phase of the oestrous cycle, were housed with adult males (1:1) for 4 h, considering 2 h of light and 2 h of darkness. Mating was confirmed by the presence of sperm in vaginal smear, and the following 24 h were considered as gestational day 0 (GD 0).
# Rat embryos were explanted and evaluated as described before with some variations. Briefly, embryos were explanted at GD 9.5 under sterile conditions. Two embryos were incorporated in flasks filled with 3.5 mL of culture medium which contained 20% of rat serum and 80% of serum mixture (Biochrom AG; Berlin, Germany). TCBZ, TCBZSO, ABZ and ABZSO were dissolved in dimethyl sulfoxide (DMSO; Sigma Aldrich Spain) and added to the culture medium to a final DMSO concentration of 0.1%. Culture flasks were oxygenated at the beginning of the culture with a gas mixture containing 12% O2 and after 38 h with a gas mixture containing 50% O2. Embryos were cultured at a temperature of 38°C, under rotation at a speed of 25 rpm (Noria R, Ovan Spain) for 48 h. After this period, embryos presenting yolk sac circulation and heartbeat were considered alive and were selected for further evaluation. The yolk sac circulation was evaluated according to the level of formation of blood vessels, giving a score of 1 in the cases in which few vessels were observed or the vascularization was abnormal, a score of 2 when a delay in vascularization was observed and 3 for complete vascularization, as previously described in [35]. Growth evaluation was assessed by crown-rump length and differentiation was evaluated by counting the number of somites and the morphological score. This score is the sum of the scores given to several embryonic structures depending on their differentiation stage, corresponding higher values with higher stages of differentiation. Furthermore, the percentage of dysmorphogenesis was calculated according to [36].
# For the postWEC experiments, the selected concentrations were 140 μM, 278 μM and 556 μM for TCBZ and 267 μM, 666 μM and 932 μM for TCBZSO. The tested concentrations for ABZ analysis were 0.4 μM, 1.1 μM and 1.9 μM and for ABZSO were 3.4 μM, 9 μM, 12 μM, 14 μM and 16 μM.
# [2] = system: zebrafish embryos; assay: Zebrafish embryo test (ZFET); assay type: in vivo, Danio rerio; details: for Lethality / ZFET LOAEC dysmorphogenesis / ZFET LOAEC lethality: 2-50 hpf; for Dysmorphogenic embryos / Morphological score: 50 hpf
# Experimental: The day before the test, adult male and female zebrafish were transferred (1:1) to breeding tanks (Aquaneering, San Diego, California). Artificial plants and marbles were used as spawning substrate. Spawning and fertilization took place within 30 min after the onset of light in the morning. Eggs were collected and extensively cleaned with ISO-standard 7346 water diluted 1:5 using deionized water. Fertilized eggs were selected under a dissection stereomicroscope (Motic SMZ168, Motic China group, LTD., China). The eggs presenting overt anomalies like asymmetries, formation of vesicles or damaged membranes were discarded.
# Exposure and evaluation of eggs was performed as described before with slight variations. At 2 hours post-fertilization (hpf) fertilized eggs were selected and transferred to 6-well plates (Greiner Bio-one, Germany). Ten embryos were randomly distributed into wells and filled with 5 mL of freshly prepared test solutions. TCBZ, TCBZSO, ABZ and ABZSO were dissolved in DMSO and subsequently diluted in 0.3x Danieau’s buffer to a final DMSO concentration of 0.05% (v/v). Embryos were incubated at 26 ± 1°C with a dark-light cycle of 10–14 h for 48 h. Embryolethality was determined at 8 hpf on the basis of egg coagulation, at 26 hpf by the absence of tail detachment or somites formation, and at 50 hpf by the absence of heartbeat. Developmental and teratogenic effects were assessed at 50 hpf by the total morphological score described in [32].
# The working concentrations for ZFET experiments were 0.1 μM, 0.5 μM, 1 μM, 2.5 μM and 5 μM for TCBZ studies and 0.5 μM, 1 μM, 2.5 μM, 5 μM, 10 μM and 50 μM for TCBZSO. The experiments with ABZ were performed including concentrations of 0.025 μM, 0.05 μM, 0.1 μM, 0.3 μM and 0.5 μM and for ABZSO they included 1 μM, 6 μM, 12 μM, 25 μM and 50 μM.
# [3] = system: rat whole embryo culture; parameters: method as in PMID 22652462; details: ref 16; cited from earlier work
# [4] = system: zebrafish embryos; details: cited from earlier work
# [5] = cited from earlier work
structure (smiles),measurement,setting,value
"CCC[S+]([O-])c1ccc2[nH]c(NC(=O)OC)nc2c1 (centres unmarked) [ABZSO, albendazole sulfoxide]",Crown-rump length,[1]; 3.4 μM,3.6 ± 0.2 mm
same,Morphological score,[1]; 3.4 μM,38.5 ± 2.1
same,Somites number,[1]; 3.4 μM,26.9 ± 1.6
same,Yolk sac circulation (median),[1]; 3.4 μM,3.0
same,Frequency of dysmorphogenesis: Branchial bars,[1]; 9 µM,23.1%
same,Frequency of dysmorphogenesis: Caudal part,[1]; 9 µM,7.7%
same,Frequency of dysmorphogenesis: Flexion,[1]; 9 µM,7.7%
same,Frequency of dysmorphogenesis: Heart,[1]; 9 µM,7.7%
same,Frequency of dysmorphogenesis: Subcutaneous blisters,[1]; 9 µM,30.8%
same,Frequency of dysmorphogenesis: Yolk sac,[1]; 9 µM,7.7%
same,Crown-rump length,[1]; 9 μM,3.4 ± 0.3 mm
same,Dysmorphogenic embryos,[1]; 9 μM,30.8 ^* %
same,Morphological score,[1]; 9 μM,35.8 ± 5.2
same,Somites number,[1]; 9 μM,25.0 ± 2.8
same,Yolk sac circulation (median),[1]; 9 μM,3.0
same,Frequency of dysmorphogenesis: Branchial bars,[1]; 12 µM,10%
same,Frequency of dysmorphogenesis: Head,[1]; 12 µM,40%
same,Frequency of dysmorphogenesis: Subcutaneous blisters,[1]; 12 µM,40%
same,Crown-rump length,[1]; 12 μM,3.6 ± 0.2 mm
same,Dysmorphogenic embryos,[1]; 12 μM,40 ^* %
same,Morphological score,[1]; 12 μM,38.6 ± 1.2
same,Somites number,[1]; 12 μM,25.5 ± 2.0
same,Yolk sac circulation (median),[1]; 12 μM,3.0
same,Frequency of dysmorphogenesis: Branchial bars,[1]; 14 µM,63.6%
same,Frequency of dysmorphogenesis: Caudal part,[1]; 14 µM,36.4%
same,Frequency of dysmorphogenesis: Flexion,[1]; 14 µM,9.1%
same,Frequency of dysmorphogenesis: Head,[1]; 14 µM,36.4%
same,Frequency of dysmorphogenesis: Optic vesicles,[1]; 14 µM,9.1%
same,Frequency of dysmorphogenesis: Otic vesicles,[1]; 14 µM,36.4%
same,Frequency of dysmorphogenesis: Subcutaneous blisters,[1]; 14 µM,54.5%
same,Frequency of dysmorphogenesis: Yolk sac,[1]; 14 µM,18.2%
same,Crown-rump length,[1]; 14 μM,3.4 ± 0.2 mm
same,Dysmorphogenic embryos,[1]; 14 μM,72.7 ^* %
same,Morphological score,[1]; 14 μM,29.7 ± 6.6
same,Somites number,[1]; 14 μM,22.9 ± 1.6
same,Yolk sac circulation (median),[1]; 14 μM,2.0 ^*
same,Frequency of dysmorphogenesis: Branchial bars,[1]; 16 µM,100%
same,Frequency of dysmorphogenesis: Caudal part,[1]; 16 µM,72.7%
same,Frequency of dysmorphogenesis: Flexion,[1]; 16 µM,63.6%
same,Frequency of dysmorphogenesis: Head,[1]; 16 µM,72.7%
same,Frequency of dysmorphogenesis: Heart,[1]; 16 µM,45.5%
same,Frequency of dysmorphogenesis: Limbs,[1]; 16 µM,18.2%
same,Frequency of dysmorphogenesis: Optic vesicles,[1]; 16 µM,27.3%
same,Frequency of dysmorphogenesis: Otic vesicles,[1]; 16 µM,45.5%
same,Frequency of dysmorphogenesis: Subcutaneous blisters,[1]; 16 µM,45.5%
same,Frequency of dysmorphogenesis: Yolk sac,[1]; 16 µM,63.6%
same,Crown-rump length,[1]; 16 μM,3.1 ± 0.6 mm
same,Dysmorphogenic embryos,[1]; 16 μM,100 ^* %
same,Morphological score,[1]; 16 μM,21.8 ± 6.7
same,Somites number,[1]; 16 μM,19.3 ± 2.4
same,Yolk sac circulation (median),[1]; 16 μM,1.0 ^*
same,postWEC LOAEC,[1],9 µM
same,Lethality,[2]; 1 μM,0%
same,Dysmorphogenic embryos,[2]; 1 μM,0%
same,Morphological score,[2]; 1 μM,36.0 ± 0.0
same,Frequency of dysmorphogenesis: Cardiac oedema,[2]; 6µM,3.3%
same,Lethality,[2]; 6 μM,0%
same,Dysmorphogenic embryos,[2]; 6 μM,3.3%
same,Morphological score,[2]; 6 μM,35.7 ± 0.9
same,Frequency of dysmorphogenesis: Cardiac oedema,[2]; 12 µM,10%
same,Lethality,[2]; 12 μM,0%
same,Dysmorphogenic embryos,[2]; 12 μM,10%
same,Morphological score,[2]; 12 μM,35.5 ± 0.6
same,Frequency of dysmorphogenesis: Brain necrosis,[2]; 25µM,100%
same,Frequency of dysmorphogenesis: Cardiac oedema,[2]; 25µM,100%
same,Frequency of dysmorphogenesis: Developmental delay,[2]; 25µM,100%
same,Frequency of dysmorphogenesis: Eye pigmentation,[2]; 25µM,100%
same,Frequency of dysmorphogenesis: Head-body pigmentation,[2]; 25µM,100%
same,Frequency of dysmorphogenesis: Movement,[2]; 25µM,100%
same,Lethality,[2]; 25 μM,13%
same,Dysmorphogenic embryos,[2]; 25 μM,100% and 100 ^* %
same,Morphological score,[2]; 25 μM,18.0 ± 0.0
same,Lethality,[2]; 50 μM,100% and 100 ^* %
same,ZFET LOAEC dysmorphogenesis,[2],25 µM
same,ZFET LOAEC lethality,[2],50 µM
same,"postWEC LOAEC, in vitro literature",[3],17.7 [16] μM
same,"ZFET LOAEC, in vitro literature",[4]; ref 19,Non observed adverse effects
same,"ZFET LOAEC, in vitro literature",[4]; ref 20,6.8 µM
same,Plasma concentrations at teratogenic doses,[5]; reviewed and transformed to μM by 16,12.8 ([47]; reviewed and transformed to μM by [16])
"CCCSc1ccc2nc(NC(=O)OC)[nH]c2c1 [ABZ, methyl-5-(propylthio)-2-benzimidazole-carbamate]",Crown-rump length,[1]; 0.4 μM,3.5 ± 0.1 mm
same,Dysmorphogenic embryos,[1]; 0.4 μM,0%
same,Morphological score,[1]; 0.4 μM,38.9 ± 0.6
same,Somites number,[1]; 0.4 μM,25.8 ± 1.9
same,Yolk sac circulation (median),[1]; 0.4 μM,3.0
same,Frequency of dysmorphogenesis: Branchial bars,[1]; 1.1 µM,50%
same,Frequency of dysmorphogenesis: Heart,[1]; 1.1 µM,12.5%
same,Frequency of dysmorphogenesis: Subcutaneous blisters,[1]; 1.1 µM,50%
same,Frequency of dysmorphogenesis: Yolk sac,[1]; 1.1 µM,25%
same,Crown-rump length,[1]; 1.1 μM,3.2 ± 0.2 mm
same,Dysmorphogenic embryos,[1]; 1.1 μM,50 ^* %
same,Morphological score,[1]; 1.1 μM,30.8 ± 2.1
same,Somites number,[1]; 1.1 μM,23.9 ± 1.1
same,Yolk sac circulation (median),[1]; 1.1 μM,3.0
same,Frequency of dysmorphogenesis: Branchial bars,[1]; 1.9 µM,100%
same,Frequency of dysmorphogenesis: Caudal part,[1]; 1.9 µM,37.5%
same,Frequency of dysmorphogenesis: Flexion,[1]; 1.9 µM,12.5%
same,Frequency of dysmorphogenesis: Head,[1]; 1.9 µM,62.5%
same,Frequency of dysmorphogenesis: Heart,[1]; 1.9 µM,37.5%
same,Frequency of dysmorphogenesis: Subcutaneous blisters,[1]; 1.9 µM,37.5%
same,Frequency of dysmorphogenesis: Yolk sac,[1]; 1.9 µM,75%
same,Crown-rump length,[1]; 1.9 μM,2.9 ± 0.4 mm
same,Dysmorphogenic embryos,[1]; 1.9 μM,100 ^* %
same,Morphological score,[1]; 1.9 μM,26.4 ± 5.2
same,Somites number,[1]; 1.9 μM,21.9 ± 4.5
same,Yolk sac circulation (median),[1]; 1.9 μM,1.0 ^*
same,postWEC LOAEC,[1],1.1 µM
same,Lethality,[2]; 0.025 μM,7%
same,Dysmorphogenic embryos,[2]; 0.025 μM,0%
same,Morphological score,[2]; 0.025 μM,36.0 ± 0.0
same,Frequency of dysmorphogenesis: Cardiac oedema,[2]; 0.05 µM,3.3%
same,Lethality,[2]; 0.05 μM,0%
same,Dysmorphogenic embryos,[2]; 0.05 μM,3.3%
same,Morphological score,[2]; 0.05 μM,35.9 ± 0.2
same,Frequency of dysmorphogenesis: Cardiac oedema,[2]; 0.1 µM,2.5%
same,Lethality,[2]; 0.1 μM,0%
same,Dysmorphogenic embryos,[2]; 0.1 μM,2.5%
same,Morphological score,[2]; 0.1 μM,35.9 ± 0.2
same,Frequency of dysmorphogenesis: Cardiac oedema,[2]; 0.3 µM,72%
same,Frequency of dysmorphogenesis: Developmental delay,[2]; 0.3 µM,72%
same,Frequency of dysmorphogenesis: Eye pigmentation,[2]; 0.3 µM,16%
same,Frequency of dysmorphogenesis: Head-body pigmentation,[2]; 0.3 µM,40%
same,Frequency of dysmorphogenesis: Movement,[2]; 0.3 µM,32%
same,Lethality,[2]; 0.3 μM,17 ^* %
same,Dysmorphogenic embryos,[2]; 0.3 μM,72 ^* %
same,Morphological score,[2]; 0.3 μM,25.5 ± 2.1
same,Lethality,[2]; 0.5 μM,100% and 100 ^* %
same,ZFET LOAEC dysmorphogenesis,[2],0.3 µM
same,ZFET LOAEC lethality,[2],0.3 µM
same,"postWEC LOAEC, in vitro literature",[3],3.7 [16] μM
same,"ZFET LOAEC, in vitro literature","[4]; ref 19, 20","0.3 [19, 20] μM"
same,Plasma concentrations at teratogenic doses,[5]; reviewed and transformed to μM by 13,0.94 ([47]; reviewed and transformed to μM by [13])
